Data taken from patent publication US7473669B2, “Substituted 4,5-dihydro-1,2,4-triazin-6-ones, 1,2,4-triazin-6-ones, and their use as fungicides” (priority 2005, dated 2009).

What was measured:
Assay type in all cases: in vivo
[1] = tested on: Phytophthora infestans; assay: whole plant or invertebrate; settings: in Solanum lycopersicum, 24 h, read-out: PHYTIN percent control rating, tomato plants, one-day protectant test, 200 ppm application rate
[2] = tested on: Puccinia recondita tritici; assay: Leaf Rust of Wheat greenhouse one-day protectant test; settings: 24 h, wheat plants, one-day protectant test, 200 ppm application rate, read-out: PUCCRT percent control rating
[3] = tested on: Leptosphaeria nodorum; assay: Glume Blotch of Wheat greenhouse one-day protectant test; settings: Parastagonospora nodorum, 24 h; wheat plants, one-day protectant test, 200 ppm application rate; read-out: LEPTNO percent control rating
[4] = tested on: Pyricularia oryzae; assay: whole plant or invertebrate; settings: 24 h, read-out: PYRIOR percent control rating
[5] = tested on: Erysiphe cichoracaerum; assay: Cucumber Powdery Mildew greenhouse one-day protectant test; settings: 24 h, cucumber plants, one-day protectant test, 200 ppm application rate, read-out: ERYSCI percent control rating
[6] = tested on: Colletotricum lagenarium; assay: Cucumber Anthracnose greenhouse one-day protectant test; settings: Cucumis sativus, 24 h, cucumber plants, one-day protectant test, 200 ppm application rate; read-out: COLLLA percent control rating

SMILES	pest or weed control at 200 ppm [1] [%]	pest or weed control at 200 ppm [2] [%]	pest or weed control at 200 ppm [3] [%]	pest or weed control at 200 ppm [4] [%]	pest or weed control at 200 ppm [5] [%]	pest or weed control at 200 ppm [6] [%]
O=C(c1ccccc1)c1cccc(C2=NN(CC(F)(F)F)C(=O)C(SC3CCCCC3)N2)c1 (stereo not drawn) [Compound 54]	0 to 49	50 to 79	80 to 100	80 to 100	0 to 49	50 to 79
Cc1cc(C2=NN(CC(F)(F)F)C(=O)C(SC3CCCCC3)N2)ccc1Br (stereo not drawn) [Compound 43]	80 to 100	80 to 100	80 to 100	80 to 100	0 to 49	80 to 100
O=c1cnc(-c2ccc(F)c(Br)c2)nn1Cc1ccc(Cl)nc1 [Compound 97, (3-bromo-4-fluoro-phenyl)-1-(6-chloro-pyridin-3-ylmethyl)-1H-[1,2,4]triazin-6-one]	0 to 49	80 to 100	80 to 100	80 to 100	0 to 49	50 to 79
O=C1C(SC2CCCCC2)NC(c2cccc(-c3ccsc3)c2)=NN1CC(F)(F)F (stereo not drawn) [Compound 55]	0 to 49	50 to 79	80 to 100	80 to 100	0 to 49	50 to 79
Cc1cc(C)cc(C2=NN(CCOC(=O)Nc3ccc4c(c3)OCO4)C(=O)CN2)c1 [Compound 3]	0 to 49	80 to 100	50 to 79	80 to 100	0 to 49	50 to 79
O=C1CNC(c2cc(Cl)cc(Cl)c2)=NN1CCOc1ccccc1 [Compound 66]	0 to 49	80 to 100	80 to 100	80 to 100	0 to 49	80 to 100
Cc1cc(C)cc(C2=NN(CCOc3ccccc3)C(=O)CN2)c1 [Compound 64]	0 to 49	80 to 100	80 to 100	80 to 100	0 to 49	50 to 79
N#CCCN1N=C(c2cccc(OCc3ccccc3)c2)NCC1=O [Compound 18]	0 to 49	80 to 100	50 to 79	50 to 79	0 to 49	50 to 79
Cc1cc(C)cc(C2=NN(CC(F)(F)F)C(=O)C(SC3CCCCC3)N2)c1 (stereo not drawn) [Compound 37]	0 to 49	80 to 100	80 to 100	80 to 100	0 to 49	80 to 100
Cc1cc(C)cc(C2=NN(CC(F)(F)F)C(=O)C(SCCO)N2)c1 (stereo not drawn) [Compound 38]	0 to 49	80 to 100	80 to 100	80 to 100	0 to 49	0 to 49
O=C1CNC(c2cccc(C#Cc3ccccc3)c2)=NN1CC(F)(F)F [Compound 70]	0 to 49	0 to 49	0 to 49	80 to 100	0 to 49	0 to 49
O=C1CNC(c2cc(Cl)cc(Cl)c2)=NN1C(=O)C(F)(F)F [Compound 11]	0 to 49	0 to 49	50 to 79	50 to 79	0 to 49	50 to 79
O=C1CNC(c2cccc(O)c2)=NN1CC(F)(F)F [Compound 22]	0 to 49	50 to 79	0 to 49	0 to 49	0 to 49	0 to 49
O=C1CNC(c2cccc(Oc3nnnn3-c3ccccc3)c2)=NN1CC(F)(F)F [Compound 28]	0 to 49	0 to 49	50 to 79	50 to 79	0 to 49	0 to 49
O=C1C(SC2CCCCC2)NC(c2ccc(Br)s2)=NN1CC(F)(F)F (stereo not drawn) [Compound 50]	0 to 49	80 to 100	80 to 100	80 to 100	0 to 49	50 to 79
Cc1cc(C)cc(C2=NN(CCO)C(=O)CN2)c1 [Compound 2]	0 to 49	0 to 49	0 to 49	80 to 100	0 to 49	0 to 49

SMILES	pest or weed control at 200 ppm [1] [%]	pest or weed control at 200 ppm [2] [%]	pest or weed control at 200 ppm [3] [%]	pest or weed control at 200 ppm [4] [%]	pest or weed control at 200 ppm [5] [%]	pest or weed control at 200 ppm [6] [%]
O=C1CNC(c2cccc(Oc3ncccn3)c2)=NN1CC(F)(F)F [Compound 31]	0 to 49	0 to 49	50 to 79	0 to 49	0 to 49	0 to 49
O=C1CNC(c2cccc(/C=C\c3ccccc3)c2)=NN1CC(F)(F)F [Compound 71]	0 to 49	50 to 79	80 to 100	50 to 79	0 to 49	0 to 49
O=C1CNC(c2cc(Cl)cc(Cl)c2)=NN1CO [Compound 8]	0 to 49	0 to 49	50 to 79	0 to 49	0 to 49	0 to 49
CC(=O)OCN1N=C(c2ccc(Cl)c(Cl)c2)NCC1=O [Compound 14]	0 to 49	50 to 79	0 to 49	0 to 49	0 to 49	0 to 49
O=C1CNC(c2ccc(-c3ccc(C(F)(F)F)cc3)nc2)=NN1CCF [Compound 35]	50 to 79	80 to 100	80 to 100	80 to 100	0 to 49	50 to 79
O=c1cnc(-c2cc(Br)cc(-c3ccsc3)c2)nn1CCc1ccccc1 [Compound 83]	0 to 49	0 to 49	50 to 79	0 to 49	0 to 49	0 to 49
O=c1cnc(-c2csc(-c3ccccc3)c2)nn1CC(F)(F)F [Compound 79]	0 to 49	80 to 100	80 to 100	80 to 100	0 to 49	50 to 79
O=c1cnc(-c2cc(Br)cc(-c3ccsc3)c2)nn1Cc1ccccc1 [Compound 82]	0 to 49	0 to 49	80 to 100	50 to 79	0 to 49	0 to 49
O=C1CNC(c2cccc(C(=NOCc3ccccc3)c3ccccc3)c2)=NN1CC(F)(F)F [Compound 76]	0 to 49	50 to 79	50 to 79	80 to 100	0 to 49	0 to 49
O=C1CNC(c2cccc(OCc3ccccc3)c2)=NN1c1cccc(Br)c1 [Compound 21]	0 to 49	50 to 79	50 to 79	80 to 100	0 to 49	0 to 49
O=C1CNC(c2cccc(OCc3ccccc3)c2)=NN1Cc1ccccc1 [Compound 20]	0 to 49	80 to 100	50 to 79	80 to 100	0 to 49	0 to 49
O=C1CNC(c2cc(C=Cc3ccccc3)cc(-c3ccsc3)c2)=NN1CC(F)(F)F [Compound 26]	0 to 49	0 to 49	50 to 79	0 to 49	0 to 49	0 to 49
O=C1CNC(c2ccc(Cl)c(Cl)c2)=NN1CO [Compound 9]	0 to 49	50 to 79	80 to 100	0 to 49	0 to 49	0 to 49
O=C1CNC(c2cc(Br)cc(-c3ccsc3)c2)=NN1Cc1ccccc1 [Compound 68]	0 to 49	0 to 49	80 to 100	80 to 100	0 to 49	0 to 49
O=C1CNC(c2cc(Cl)cc(Cl)c2)=NN1CN1CCOCC1 [Compound 15]	0 to 49	0 to 49	50 to 79	80 to 100	0 to 49	0 to 49
